Like-named read-outs stand apart in the source and are kept apart here.
Assays:
[1] = target: T1, PI3Kα (Homo sapiens, UniProt P42336); test: Adapta universal kinase assay; format: biochemical; conditions: read-out: % inhibition against PI3Kα enzyme ± SD ^b
[2] = target: T1, PI3Kα; test: Adapta universal kinase assay; format: biochemical; conditions: read-out: % inhibition against PI3Kα enzyme ± SD ^b; remark: listed apart in the source

T1 sequence (P42336 whole entry): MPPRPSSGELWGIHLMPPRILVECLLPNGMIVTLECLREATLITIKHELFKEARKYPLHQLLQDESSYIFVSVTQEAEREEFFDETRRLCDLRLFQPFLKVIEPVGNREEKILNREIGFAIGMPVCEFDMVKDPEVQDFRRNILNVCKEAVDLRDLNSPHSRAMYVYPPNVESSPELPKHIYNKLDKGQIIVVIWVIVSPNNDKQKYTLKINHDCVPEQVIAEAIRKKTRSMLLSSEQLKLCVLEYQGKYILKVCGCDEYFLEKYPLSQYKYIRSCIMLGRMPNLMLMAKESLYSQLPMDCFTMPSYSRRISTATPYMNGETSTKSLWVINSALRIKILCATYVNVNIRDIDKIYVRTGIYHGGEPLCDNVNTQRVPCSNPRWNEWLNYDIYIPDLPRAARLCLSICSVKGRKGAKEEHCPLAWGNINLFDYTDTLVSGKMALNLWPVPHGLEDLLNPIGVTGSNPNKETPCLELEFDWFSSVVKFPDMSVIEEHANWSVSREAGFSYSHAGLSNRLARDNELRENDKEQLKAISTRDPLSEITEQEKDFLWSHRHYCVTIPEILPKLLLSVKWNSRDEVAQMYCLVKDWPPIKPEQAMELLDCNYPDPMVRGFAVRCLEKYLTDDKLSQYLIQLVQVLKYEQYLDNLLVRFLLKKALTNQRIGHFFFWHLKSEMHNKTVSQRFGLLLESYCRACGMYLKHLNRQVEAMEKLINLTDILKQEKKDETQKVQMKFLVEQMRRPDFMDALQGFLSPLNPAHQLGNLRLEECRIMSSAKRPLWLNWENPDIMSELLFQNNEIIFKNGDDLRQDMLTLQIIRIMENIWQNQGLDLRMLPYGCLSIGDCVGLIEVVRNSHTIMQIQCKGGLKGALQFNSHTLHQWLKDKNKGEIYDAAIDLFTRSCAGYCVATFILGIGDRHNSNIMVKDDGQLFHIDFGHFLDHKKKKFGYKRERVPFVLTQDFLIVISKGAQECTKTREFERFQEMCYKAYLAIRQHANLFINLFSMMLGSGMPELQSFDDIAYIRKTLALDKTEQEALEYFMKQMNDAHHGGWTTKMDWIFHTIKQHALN
T1 sequence (P27986 2-724, further chain): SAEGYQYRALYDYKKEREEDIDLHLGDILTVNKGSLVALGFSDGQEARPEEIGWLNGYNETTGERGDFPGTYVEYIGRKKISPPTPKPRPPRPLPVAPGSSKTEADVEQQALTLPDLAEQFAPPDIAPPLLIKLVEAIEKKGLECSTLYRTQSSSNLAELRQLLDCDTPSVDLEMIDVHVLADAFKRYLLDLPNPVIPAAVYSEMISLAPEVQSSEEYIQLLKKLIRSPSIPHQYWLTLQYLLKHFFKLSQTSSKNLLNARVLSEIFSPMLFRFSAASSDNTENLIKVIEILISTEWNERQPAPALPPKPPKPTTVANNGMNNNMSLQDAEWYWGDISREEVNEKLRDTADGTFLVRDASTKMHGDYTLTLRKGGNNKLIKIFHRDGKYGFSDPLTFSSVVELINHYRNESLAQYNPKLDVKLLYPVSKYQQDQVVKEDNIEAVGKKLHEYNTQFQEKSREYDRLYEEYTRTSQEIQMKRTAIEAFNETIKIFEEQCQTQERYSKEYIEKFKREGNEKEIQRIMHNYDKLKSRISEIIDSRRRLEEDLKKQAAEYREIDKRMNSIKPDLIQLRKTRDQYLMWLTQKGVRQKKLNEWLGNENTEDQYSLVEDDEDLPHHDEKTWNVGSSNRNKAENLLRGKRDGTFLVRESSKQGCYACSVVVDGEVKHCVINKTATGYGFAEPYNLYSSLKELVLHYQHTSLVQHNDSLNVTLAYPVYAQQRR

SMILES	inhibition at 100 µM [1] [%]	inhibition at 100 µM [2] [%]
CCN(CC)c1nc(Nc2ccc(S(=O)(=O)NC(=N)N)cc2)nc(N2CCOCC2)n1 [compound 34, 1-(4-{[4-(Diethylamino)-6-(morpholin-4-yl)-1,3,5-triazin-2-yl]amino}benzene-sulfonyl)guanidine]	68 ± 3	–
CCN(CC)c1nc(NCc2ccccc2)nc(Nc2ccc(S(=O)(=O)Nc3ccccn3)cc2)n1 [compound 20, 4-{[4-(Benzylamino)-6-(diethylamino)-1,3,5-triazin-2-yl]amino}-N-(pyridin-2-yl)benzene-1-sulfonamide]	–	46
